Results taken from PubChem BioAssay AID1259411 (Chemical Carcinogenesis Research Information System (CCRIS), 2018).
Active and inactive are the calls of the source. No rule for the calls is given here.

Tested on: rodent carcinogenicity bioassays, tumor incidence
Experiment: CCRIS carcinogenicity studies
Conditions: Dose: 0, Dose: 0
Procedure, shortened: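 NCI-built, expert-reviewed records of carcinogenicity and related test outcomes (mutagenicity, tumor promotion/inhibition) compiled from published and report sources, historical span 1985-2011, not updated.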

| Compound | carcinogen call (Species: Mouse, Strain/Sex: Crl:CD-1(ICR)BR/Female (60/Group), Route: Oral, 0.3, 1.0, 30, 300 ppm of 94.9% of isazophos in diet for 18 mo, study duration 18 mo, 0.3, 1.0, 30, 300 ppm of 94.9% of isazophos in diet for 18 mo, study duration 18 mo) | carcinogen call (Species: Mouse, Strain/Sex: Crl:CD-1(ICR)BR/Male (60/Group), Route: Oral, 0.3, 1.0, 30, 300 ppm (reduced to 250 at wk 23) ppm of 94.9% of isazophos in diet for 18 mo, study duration 18 mo, 0.3, 1.0, 30, 300 ppm (reduced to 250 at wk 23) ppm of 94.9% of isazophos in diet for 18 mo, study duration 18 mo) | carcinogen call (Species: Rat, Strain/Sex: Crl:CD(SD)BR/Female (60/Group), Route: Oral, 0.1, 1.0, 300 reduced to 250 at wk 22 and then to 200 ppm at wk 66 of 94.9% of isazophos in diet for 24 mo, study dur, 0.1, 1.0, 300 reduced to 250 at wk 22 and then to 200 ppm at wk 66 of 94.9% of isazophos in diet for 24 mo, study dur) | carcinogen call (Species: Rat, Strain/Sex: Crl:CD(SD)BR/Male (60/Group), Route: Oral, 0.1, 1.0, 300 ppm of 94.9% of isazophos in diet for 24 mo, study duration 24 mo, 0.1, 1.0, 300 ppm of 94.9% of isazophos in diet for 24 mo, study duration 24 mo) | carcinogen call (Species: MOUSE, Strain/Sex: SWISS/FEMALE, Route: ORAL, 0.0078% SOLUTION IN DRINKING WATER STARTING AT 6 WK OF AGE FOR LIFE FOR AVERAGE DAILY INTAKE OF 0 OR 0.80 MG (STUDY D, Tumor Site: Type of Lesion: LIVER: HEPATOMA OR CARCINOMA, LUNG: ADENOMA OR ADENOCARCINOMA) | carcinogen call (Species: MOUSE, Strain/Sex: SWISS/MALE, Route: ORAL, 0.0078% SOLUTION IN DRINKING WATER STARTING AT 6 WK OF AGE FOR LIFE FOR AVERAGE DAILY INTAKE OF 0 OR 0.99 MG (STUDY D, Tumor Site: Type of Lesion: LIVER: HEPATOMA OR CARCINOMA, LUNG: ADENOMA OR ADENOCARCINOMA, GALLBLADDER: ADENOMA, BILE DUCT: CHOLANGIOMA OR CHOLANGIO, Tumor Site: Type of Lesion: LIVER: HEPATOMA OR CARCINOMA, LUNG: ADENOMA OR ADENOCARCINOMA, GALLBLADDER: ADENOMA, BILE DUCT: CHOLANGIOMA OR CHOLANGIO) |
| --- | --- | --- | --- | --- | --- | --- |
| CCOP(=S)(OCC)Oc1nc(Cl)n(C(C)C)n1 | inactive; negative | inactive; negative | inactive; negative | inactive; negative | – | – |
| CN(N)C=O | – | – | – | – | active; positive | active; positive |
